{"source": "patent US8697629B2", "about": "“Modulation of intracellular signaling” (Angstrom Pharmaceuticals, Inc., priority 2010, dated 2014)", "key": {"FAK": {"system": "FAK", "assay": "FAK phosphorylation in SKOV3 cells, immunoblot and densitometry", "type": "cell-based", "method": "(§1) Cells were detached from their culture vessels by brief trypsinization, suspended in complete media and centrifuged at 250×g for 10 min at room temperature. The cell pellets were suspended in Dulbeco's phosphate buffered saline (DPBS) and re-centrifuged for a total of three washes. The cells were then re-suspended at 3.33E5/ml in 24 ml of either RPMI containing 0.5% BSA (Sigma Chem. Co. #A0336) (RPMI/BSA) or the conditioned media of growing NIH3T3 fibroblasts (10% FBS in DMEM) supplemented with 10 ng/ml vascular endothelial growth factor (VEGF) (CMN). The cells were then treated with or without 100 ug/ml soluble hyaluronic acid (HA; human umbilical, Calbiochem #385902) for 30 min at 37° C. under 5% CO2. Aliquots representing 2E6 cells were then plated into 10 cm culture dishes and A6 added to yield final concentrations of 0, 10, 100 and 1000 nM. The cells were cultured overnight (18 hr) at 37° C. under 5% CO2.\n(§2) After 18 hr of treatment, the media were aspirated from the 10 cm dishes and saved. The plates were washed 3 times with 4 ml of ice-cold DPBS which were pooled with the reserved non-adherent cells. The non-adherent cells were centrifuged at 250×g for 10 min at 4° C., washed twice with cold DPBS, drained and lysed in 50 ul of cold RIPA buffer (ThermoScientific #89901) containing cocktails of broad spectrum phosphatase inhibitors (Calbiochem #524625; used at 2× final concentration) and protease inhibitors (Sigma #P8340) (RIPA/inh.). The 10 cm dishes were drained of remaining wash and the adherent cells lysed by scraping in 200 μL of cold RIPA/inh. For each test condition, the lysates of the non-adherent and adherent populations were combined, vortexed and then centrifuged at 14,000 rpm at 4° C. for 20 min. Aliquots of the cleared lysates were frozen at −80° C. immediately. A small aliquot was reserved for total protein analysis using a BCA Protein Assay Kit (Calbiochem #71285-3).\n(§3) Samples representing 20 μg of total protein of each lysate were solubilized in the presence of 50 mM Tris pH 6.8, 10% glycerol, 2% SDS and 100 mM DTT for 5 min at 95° C. and then loaded onto 10-20% acrylamide gels (BioRad #345-0044, Tris-HCl, 1 mm, 26 well, 15 μL/well). Electrophoresis was performed using Laemli electrophoresis buffer (0.1% SDS, 25 mM Tris, 192 mM glycine) at 200 V, constant voltage, for one hour. Upon completion of electrophoresis, the proteins were transferred to Immun-Blot PVDF membranes (BioRad #162-0238) in ice-cold 20% methanol in 25 mM Tris, 192 mM glycine for 2 hr at 0.5 Amps, constant current/blotting apparatus. […]\n(§4) The integrated densities (id) of the bands of interest were measured using Image J software (NIH). […]"}, "MEK": {"system": "MEK", "assay": "MEK phosphorylation (S217/221) in SKOV3 cells, immunoblot and densitometry", "type": "cell-based", "method": "as §1, §2, §3, §4"}}, "data": [{"substance": "acetyl-Lys-Pro-Ser-Ser-Pro-Pro-Glu-Glu-NH2 (Ac-KPSSPPEE-NH2) [Å6]", "values": [{"measurement": "FAK phosphorylation", "setting": "FAK; CM/V media", "result": "enhanced"}, {"measurement": "FAK phosphorylation in the presence of HA", "setting": "FAK; RPMI/BSA", "result": "restored"}, {"measurement": "pFAK/FAK ratios", "setting": "FAK; SKOV3, all conditions, Y397, Y576/577, Y925", "result": "enhanced pFAK/FAK ratios in a dose-dependent manner"}, {"measurement": "CM/V-increased pMEK/MEK ratios", "setting": "MEK; CM/V", "result": "potentiated this response"}, {"measurement": "pMEK/MEK", "setting": "MEK; under all conditions", "result": "enhanced"}]}]}
